Experimental data from PubChem BioAssay (NCI).
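These data come from cells grown in 96-well plates and exposed to compound for 48 hours at five concentrations. TGI is the concentration that stops growth completely.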

How the values were obtained:
Experiment in all cases: growth of human tumour cells (NCI), 48 h
786-0 renal = system: 786-0 renal
A498 renal = system: A498 renal
A549 NSCLC = system: A549 NSCLC
ACHN renal = system: ACHN renal
BT-549 breast = system: BT-549 breast
CAKI-1 renal = system: CAKI-1 renal
CCRF-CEM leukemia = system: CCRF-CEM leukemia
COLO 205 colon = system: COLO 205 colon
DU-145 prostate = system: DU-145 prostate
HCC-2998 colon = system: HCC-2998 colon
HCT-116 colon = system: HCT-116 colon
HCT-15 colon = system: HCT-15 colon
HL-60(TB) leukemia = system: HL-60(TB) leukemia
HOP-62 NSCLC = system: HOP-62 NSCLC
HS 578T breast = system: HS 578T breast
HT29 colon = system: HT29 colon
IGROV1 ovarian = system: IGROV1 ovarian
K-562 leukemia = system: K-562 leukemia
KM12 colon = system: KM12 colon
M14 melanoma = system: M14 melanoma
MALME-3M melanoma = system: MALME-3M melanoma
MCF7 breast = system: MCF7 breast
MDA-MB-231 breast = system: MDA-MB-231 breast
MDA-MB-435 = system: MDA-MB-435
MDA-N = system: MDA-N
MOLT-4 leukemia = system: MOLT-4 leukemia
NCI-H226 lung = system: NCI-H226 lung
NCI-H23 lung = system: NCI-H23 lung
NCI-H460 lung = system: NCI-H460 lung
NCI-H522 lung = system: NCI-H522 lung
NCI/ADR-RES ovarian = system: NCI/ADR-RES ovarian
OVCAR-3 ovarian = system: OVCAR-3 ovarian
OVCAR-5 ovarian = system: OVCAR-5 ovarian
OVCAR-8 ovarian = system: OVCAR-8 ovarian
PC-3 prostate = system: PC-3 prostate
SF-268 CNS = system: SF-268 CNS
SF-295 CNS = system: SF-295 CNS
SF-539 CNS = system: SF-539 CNS
SK-MEL-2 melanoma = system: SK-MEL-2 melanoma
SK-MEL-28 melanoma = system: SK-MEL-28 melanoma
SK-MEL-5 melanoma = system: SK-MEL-5 melanoma
SK-OV-3 ovarian = system: SK-OV-3 ovarian
SN12C renal = system: SN12C renal
SNB-19 CNS = system: SNB-19 CNS
SNB-75 CNS = system: SNB-75 CNS
SR leukemia = system: SR leukemia
SW-620 colon = system: SW-620 colon
T-47D breast = system: T-47D breast
TK-10 renal = system: TK-10 renal
U251 CNS = system: U251 CNS
UACC-257 melanoma = system: UACC-257 melanoma
UACC-62 melanoma = system: UACC-62 melanoma
UO-31 renal = system: UO-31 renal
EKVX NSCLC = system: EKVX NSCLC
LOX IMVI melanoma = system: LOX IMVI melanoma
OVCAR-4 ovarian = system: OVCAR-4 ovarian
RPMI-8226 leukemia = system: RPMI-8226 leukemia
RXF 393 renal = system: RXF 393 renal

Measured: TGI

Cc1ncc([N+](=O)[O-])n1CCNC(=O)Cn1ccnc1[N+](=O)[O-]
not listed: EKVX NSCLC | LOX IMVI melanoma | OVCAR-4 ovarian | RPMI-8226 leukemia | RXF 393 renal
> 100 µM: all other assays above

CN(C)CCN=C1Nc2ccccc2C(=O)N2CSCC12 (stereo not drawn)
not listed: HL-60(TB) leukemia | NCI-H23 lung | SF-539 CNS
> 100 µM: all other assays above
